Laboratory results taken from ChEMBL document CHEMBL1141364, “Design and synthesis of indane-ureido-thioisobutyric acids: A novel class of PPARalpha agonists” (Bioorg Med Chem Lett, 2007).
pEC50: −log10 of the molar value.

Columns and labels:
[1] = target: T1, Peroxisome proliferator-activated receptor alpha (Rattus norvegicus, UniProt P37230); experiment: Agonist activity at rat PPARalpha in rat H4IIE cells assessed as gene induction; format: functional, cell-based
T1 sequence (P37230 whole entry): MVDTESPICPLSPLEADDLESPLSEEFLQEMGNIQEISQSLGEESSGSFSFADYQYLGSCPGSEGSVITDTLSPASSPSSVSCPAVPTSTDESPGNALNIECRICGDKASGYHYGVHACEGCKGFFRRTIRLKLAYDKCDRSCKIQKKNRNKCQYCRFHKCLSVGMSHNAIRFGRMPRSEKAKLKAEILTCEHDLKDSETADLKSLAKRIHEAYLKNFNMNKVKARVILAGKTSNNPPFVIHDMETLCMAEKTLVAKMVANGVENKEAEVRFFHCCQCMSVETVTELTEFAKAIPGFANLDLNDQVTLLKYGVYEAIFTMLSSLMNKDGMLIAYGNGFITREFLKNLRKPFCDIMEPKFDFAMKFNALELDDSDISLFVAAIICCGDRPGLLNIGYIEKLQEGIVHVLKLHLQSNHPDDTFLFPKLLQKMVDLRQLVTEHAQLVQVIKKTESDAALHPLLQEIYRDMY

[2] = Metabolic stability in human liver microsomes at 5 uM; format: ADME, Microsome
[3] = Cmax in Sprague-Dawley rat at 3 mg/kg, iv or 30 mg/kg, po; format: ADME, organism-based; conditions: in vivo
[4] = AUC in Sprague-Dawley rat at 3 mg/kg, iv or 30 mg/kg, po; format: ADME, organism-based; conditions: plasma
[5] = Half life at terminal phase in Sprague-Dawley rat at 30 mg/kg, po; format: ADME, organism-based; parameters: dose 30 mg/kg, route oral; conditions: in vivo, read-out: beta t1/2 (converted)
[6] = Total clearance in Sprague-Dawley rat at 3 mg/kg, iv or 30 mg/kg, po; format: ADME, organism-based; conditions: in vivo
[7] = Oral bioavailability in Sprague-Dawley rat at 30 mg/kg; format: ADME, organism-based; conditions: in vivo

SMILES	pEC50 [1]	also measured
CCCCCCCN(C(=O)Nc1ccccc1C)C1Cc2ccc(SC(C)(C)C(=O)O)cc2C1 (configuration not stated)	5.12	
CCN(C(=O)Nc1ccc(OC(F)(F)F)cc1)[C@H]1Cc2ccc(SC(C)(C)C(=O)O)cc2C1	6.78	
CCCCCCCN(C(=O)Nc1ccc(SC(F)(F)F)cc1)C1Cc2ccc(SC(C)(C)C(=O)O)cc2C1 (configuration not stated)	6.68	
CCN(C(=O)Nc1ccc(OC(F)(F)F)cc1Br)C1Cc2ccc(SC(C)(C)C(=O)O)cc2C1 (configuration not stated)	< 6.00	
CCCCCCCN(C(=O)Nc1ccccc1OC(F)(F)F)C1Cc2ccc(SC(C)(C)C(=O)O)cc2C1 (configuration not stated)	5.30	
CCCCCN(C(=O)NC1Cc2ccc(SC(C)(C)C(=O)O)cc2C1)c1ccc(OC(F)(F)F)cc1 (configuration not stated)	< 5.30	
CCCCCCCN(C(=O)Nc1ccccc1)C1Cc2ccc(SC(C)(C)C(=O)O)cc2C1 (configuration not stated)	< 5.00	
CCCCCCCN(C(=O)Nc1cccc(C(F)(F)F)c1)C1Cc2ccc(SC(C)(C)C(=O)O)cc2C1 (configuration not stated)	5.56	
CCN(C(=O)Nc1ccc(OC(F)(F)F)c(Br)c1)C1Cc2ccc(SC(C)(C)C(=O)O)cc2C1 (configuration not stated)	< 5.52	
CCCCCCCCN(C(=O)Nc1ccc(OC(F)(F)F)cc1)C1Cc2ccc(SC(C)(C)C(=O)O)cc2C1 (configuration not stated)	5.99	
CCN(C(=O)N(C)c1ccc(OC(F)(F)F)cc1)C1Cc2ccc(SC(C)(C)C(=O)O)cc2C1 (configuration not stated)	< 6.00	
CCCCCCCN(C(=O)Nc1ccc(OC(F)(F)F)cc1)[C@@H]1Cc2ccc(SC(C)(C)C(=O)O)cc2C1	6.77	
CCCCCCN(C(=O)Nc1ccc(OC(F)(F)F)cc1)C1Cc2ccc(SC(C)(C)C(=O)O)cc2C1 (configuration not stated)	6.78	
CCN(C(=O)Nc1ccc(OC(F)(F)F)cc1C)C1Cc2ccc(SC(C)(C)C(=O)O)cc2C1 (configuration not stated)	6.22	
CC(C)(Sc1ccc2c(c1)CC(N(CCCC(F)(F)F)C(=O)Nc1ccc(OC(F)(F)F)cc1)C2)C(=O)O (configuration not stated)	6.15	
CCN(C(=O)Nc1ccc(SC(F)(F)F)cc1)C1Cc2ccc(SC(C)(C)C(=O)O)cc2C1 (configuration not stated)	7.64	half-life at 5 µM [2]: 1.67 h; Cmax [3]: 5670 ng/mL; AUC [4]: 101000 ng·h/mL; half-life [5]: 3.84 h; clearance [6]: 0.3 mL/min/kg; bioavailability [7]: 100%
CCCCCN(C(=O)Nc1ccc(OC(F)(F)F)cc1)C1Cc2ccc(SC(C)(C)C(=O)O)cc2C1 (configuration not stated)	6.98	half-life at 5 µM [2]: 1.67 h; Cmax [3]: 16600 ng/mL; AUC [4]: 121000 ng·h/mL; half-life [5]: 7.19 h; clearance [6]: 0.25 mL/min/kg; bioavailability [7]: 24%
CC(C)(Sc1ccc2c(c1)CC(NC(=O)Nc1ccc(OC(F)(F)F)cc1)C2)C(=O)O (configuration not stated)	7.02	
CCCCCN(C(=O)Nc1ccc(N(C)C)cc1)C1Cc2ccc(SC(C)(C)C(=O)O)cc2C1 (configuration not stated)	6.85	half-life at 5 µM [2]: 1.57 h; Cmax [3]: 20800 ng/mL; AUC [4]: 63600 ng·h/mL; half-life [5]: 2.6 h; clearance [6]: 0.47 mL/min/kg; bioavailability [7]: 62%
CCCCCCCN(C(=O)Nc1ccc(OC(F)(F)F)cc1)C1Cc2ccc(SC(C)(C)C(=O)O)cc2C1 (configuration not stated)	6.53	
CC(C)(Sc1ccc2c(c1)C[C@@H](NC(=O)Nc1ccc(OC(F)(F)F)cc1)C2)C(=O)O	5.95	
CCCCCCCN(C(=O)Nc1ccccc1SC(F)(F)F)C1Cc2ccc(SC(C)(C)C(=O)O)cc2C1 (configuration not stated)	5.71	
CCCCCN(C(=O)Nc1ccc(C(C)C)cc1)C1Cc2ccc(SC(C)(C)C(=O)O)cc2C1 (configuration not stated)	6.80	
CCCCCCCN(C(=O)Nc1ccc(SC)cc1)C1Cc2ccc(SC(C)(C)C(=O)O)cc2C1 (configuration not stated)	6.38	
CCCCCCCN(C(=O)Nc1ccc(C(F)(F)F)cc1)C1Cc2ccc(SC(C)(C)C(=O)O)cc2C1 (configuration not stated)	5.90	
CCCCCCCN(C(=O)Nc1ccc(OC(F)(F)F)cc1)[C@H]1Cc2ccc(SC(C)(C)C(=O)O)cc2C1	< 4.89	

SMILES	pEC50 [1]	also measured
CCN(C(=O)Nc1ccc(N(C)C)cc1)C1Cc2ccc(SC(C)(C)C(=O)O)cc2C1 (configuration not stated)	6.93	half-life at 5 µM [2]: 1.33 h; Cmax [3]: 72300 ng/mL; AUC [4]: 273000 ng·h/mL; half-life [5]: 4.46 h; clearance [6]: 0.11 mL/min/kg; bioavailability [7]: 58%
CCCCCCN(C(=O)Nc1ccc(C(C)C)cc1)C1Cc2ccc(SC(C)(C)C(=O)O)cc2C1 (configuration not stated)	6.74	
CCCCCCN(C(=O)Nc1ccc(SC(F)(F)F)cc1)C1Cc2ccc(SC(C)(C)C(=O)O)cc2C1 (configuration not stated)	6.60	
CCCCCCCN(C(=O)Nc1cccc(F)c1)C1Cc2ccc(SC(C)(C)C(=O)O)cc2C1 (configuration not stated)	5.57	
CCN(C(=O)Nc1ccc(C(C)C)cc1)C1Cc2ccc(SC(C)(C)C(=O)O)cc2C1 (configuration not stated)	7.49	half-life at 5 µM [2]: 0.2 h; Cmax [3]: 32400 ng/mL; AUC [4]: 37100 ng·h/mL; half-life [5]: 2.92 h; clearance [6]: 0.81 mL/min/kg; bioavailability [7]: 34%
CCCCCCCN(C(=O)Nc1ccc(C(C)C)cc1)C1Cc2ccc(SC(C)(C)C(=O)O)cc2C1 (configuration not stated)	6.64	
CC(C)CN(C(=O)Nc1ccc(OC(F)(F)F)cc1)C1Cc2ccc(SC(C)(C)C(=O)O)cc2C1 (configuration not stated)	5.63	
CCN(C(=O)Nc1ccc(OC(F)(F)F)c(Cl)c1)C1Cc2ccc(SC(C)(C)C(=O)O)cc2C1 (configuration not stated)	< 5.52	
CCCCCN(C(=O)Nc1ccc(SC(F)(F)F)cc1)C1Cc2ccc(SC(C)(C)C(=O)O)cc2C1 (configuration not stated)	7.34	half-life at 5 µM [2]: 1.27 h; Cmax [3]: 8020 ng/mL; AUC [4]: 54700 ng·h/mL; half-life [5]: 4.05 h; clearance [6]: 0.55 mL/min/kg; bioavailability [7]: 59%
CCCCN(C(=O)Nc1ccc(N(C)C)cc1)C1Cc2ccc(SC(C)(C)C(=O)O)cc2C1 (configuration not stated)	6.25	
CN(C(=O)Nc1ccc(OC(F)(F)F)cc1)C1Cc2ccc(SC(C)(C)C(=O)O)cc2C1 (configuration not stated)	5.55	
CCCCN(C(=O)Nc1ccc(C(C)C)cc1)C1Cc2ccc(SC(C)(C)C(=O)O)cc2C1 (configuration not stated)	6.59	
CCCCCCN(C(=O)Nc1ccc(N(C)C)cc1)C1Cc2ccc(SC(C)(C)C(=O)O)cc2C1 (configuration not stated)	6.66	
CCCCCCCN(C(=O)Nc1ccccc1F)C1Cc2ccc(SC(C)(C)C(=O)O)cc2C1 (configuration not stated)	< 5.00	
CC(C)(Oc1ccc(C2CC2(Cl)Cl)cc1)C(=O)O (configuration not stated) [CIPROFIBRATE]	< 5.00	
CC(C)N(C(=O)Nc1ccc(OC(F)(F)F)cc1)C1Cc2ccc(SC(C)(C)C(=O)O)cc2C1 (configuration not stated)	< 5.30	
CCCCCCCN(C(=O)Nc1ccc(F)cc1F)C1Cc2ccc(SC(C)(C)C(=O)O)cc2C1 (configuration not stated)	< 5.00	
CCCCCCCN(C(=O)Nc1ccc(N(C)C)cc1)C1Cc2ccc(SC(C)(C)C(=O)O)cc2C1 (configuration not stated)	6.60	
COCCN(C(=O)Nc1ccc(OC(F)(F)F)cc1)C1Cc2ccc(SC(C)(C)C(=O)O)cc2C1 (configuration not stated)	6.37	
CCCCCCCN(C(=O)Nc1ccc(OC)cc1)C1Cc2ccc(SC(C)(C)C(=O)O)cc2C1 (configuration not stated)	6.04	
CCCCN(C(=O)Nc1ccc(OC(F)(F)F)cc1)C1Cc2ccc(SC(C)(C)C(=O)O)cc2C1 (configuration not stated)	6.71	
CCCCCCCN(C(=O)Nc1ccccc1C(F)(F)F)C1Cc2ccc(SC(C)(C)C(=O)O)cc2C1 (configuration not stated)	5.19	
CC(C)(Sc1ccc2c(c1)C[C@H](NC(=O)Nc1ccc(OC(F)(F)F)cc1)C2)C(=O)O	6.84	
CC(C)CCN(C(=O)Nc1ccc(OC(F)(F)F)cc1)C1Cc2ccc(SC(C)(C)C(=O)O)cc2C1 (configuration not stated)	6.41	
CCCCCCCN(C(=O)Nc1cccc(OC)c1)C1Cc2ccc(SC(C)(C)C(=O)O)cc2C1 (configuration not stated)	5.95	
